The values that follow come from patent US20250120964A1, “USE OF NOVEL MOLECULAR GLUE” (ASTROGEN, INC., priority 2023, published 2025).

Assay [1] has as its system 83NS (GSC cell line derived from a GBM patient) orthotopic glioblastoma model. Put plainly: In vivo orthotopic glioblastoma xenograft model, survival. Particulars: mice, oral daily 50 mg/kg for 4 weeks, 83NS orthotopic model. The procedure:
An in vivo experiment was carried out using a xenograft model. Specifically, 83NS (GSC cell line derived from a GBM patient) was used to construct an orthotopic glioblastoma model in such a way that 1×10^4 cells were injected into the brain of each of mice (n=16) at a volume of 3 μl. Thereafter, a vehicle was administered to mice (n=8), and AST-DT-218 was orally administered daily to the remaining mice (n=8) at a concentration of 50 mg/kg for 4 weeks, […]. On the other hand, the drug to be administered was changed to AST-DT-135, and the same experiment was carried out.

The test system of assay [2] is U87 brain cancer cell line. Put plainly: In vitro cell survival assay (nuclear staining), U87. It is filed as cell-based. The following applies: for IC50: U87, 48 hours treatment, cell number by nuclear staining. On the procedure: (§1) An in vitro experiment was carried out to check whether the compound (AST-DT-218) prepared in Example 2 was effective in the cell death in the brain cancer. First, brain cancer cell lines (U87, U373, and SK-N-SH) were cultured in the respective flasks to prepare cells that had reached the logarithmic growth stage. Then, the cells were washed with PBS, harvested with trypsin, centrifuged to adjust the cell density, and then resuspended in a suitable culture medium, and the cells were dispensed into a 96-well plate. The culture was carried out until the cells were attached to the plate and stabilized. AST-DT-218 and temozolomide, a conventional therapeutic agent for glioblastoma, were prepared and diluted at various concentrations (½ dilution from the highest concentration of 50 μM, 10-point). The cells in the well of the plate were treated for 48 hours with each compound at individual concentrations, and the cells were cultured to react with the compound. After the culture was completed, the number of cells was measured through the nuclear staining of the cells to evaluate the cell survival rate (FIG. 1), and IC50 was calculated (Table 2).

For assay [3], the system named is SK-N-SH brain cancer cell line. Put plainly: In vitro cell survival assay (nuclear staining), SK-N-SH. The assay is classed as cell-based. Particulars: Homo sapiens, 48 hours treatment, cell number by nuclear staining. The procedure: as §1
The test system of assay [4] is U373 brain cancer cell line. Put plainly: In vitro cell survival assay (nuclear staining), U373. The following applies: Homo sapiens, U373 MG; U373, 48 hours treatment, cell number by nuclear staining. The assay is classed as cell-based. On the procedure:
as §1

For assay [5], the system named is U87 cells. Kind of assay: Colony-formation assay. The assay is classed as cell-based. The following applies: cultured about two weeks, crystal violet. On the procedure: U87 cells, which are a brain cancer cell line, were cultured, the cells were separated using Trypsin-EDTA when the cells grew sufficiently, the cells were distributed uniformly on a 12-well plate, and the cells were treated with AST-DT-218 in each well after being attached. Then, the cells were cultured for about two weeks in an environment of 37° C. and about 5% CO2. When the cultivation was completed, the cells were fixed. Then, the colonies were stained with a crystal violet solution, and after the staining, the colonies were washed with PBS to remove background staining. A microscope was used to observe the colonies, and the number and size of the colonies were measured and quantified (FIG. 2).

Assay [6] deals with U87 cells. Kind of assay: Measurement of sub G1 population (flow cytometry). It is filed as cell-based. The following applies: 48 hours, 0.5 μM and 1 μM. On the procedure:
The sub G1 population was measured to check whether AST-DT-218 induces DNA fragmentation and apoptosis as in Experimental Example 3-1. […] The value of the sub G1 population of cells was measured using a flow cytometry apparatus (FIG. 5).
(In general: Flow cytometry measures light scatter and fluorescence of single cells or particles in a stream.)

Assay [7] deals with U87 glioblastoma-derived brain cancer cell line. Put plainly: Dose response curve (DRC), cell survival, U87. The assay is classed as cell-based. The procedure: (§2) The DRC was created in order to check whether AST-DT-218 is effective in the cell death in the brain cancer. First, glioblastoma-derived brain cancer cell lines (U87 and U373) were cultured in the respective flasks to prepare cells that had reached the logarithmic growth stage. Then, the cells were washed with PBS, harvested with trypsin, centrifuged to adjust the cell density, and then resuspended in a suitable culture medium, and the cells were dispensed into a 96-well plate. Cells were cultured until they were attached to the plate and stabilized, AST-DT-218 and a control group (lenalidomide, pomalidomide) were prepared and diluted to a variety of concentrations (½ dilution from the highest concentration of 10 μM, 10-point). The cells in the well of the plate were treated for 48 hours with each compound at individual concentrations, and the cells were cultured to react with the compound. After the culture was completed, the number of cells was measured through the nuclear staining of the cells to evaluate the cell survival rate. The cell survival rate at each concentration was measured to collect data. Then, the DRC was created (FIG. 6 and FIG. 7), and IC50 was calculated (Table 3).

In assay [8] the test system is U87 cells. Put plainly: Western blotting of gamma-H2AX and cleaved PARP. The assay is classed as cell-based. The procedure:
The following experiments were carried out to check whether AST-DT-218 induces DNA fragmentation and apoptosis. First, U87 cells were cultured, the cells were separated using Trypsin-EDTA when the cells grew sufficiently, the cells were plated and distributed uniformly on a 12-well plate, and the cells were treated with AST-DT-218 after being attached. Subsequently, the cells were washed with PBS, proteins were extracted using a cell lysis buffer, and the cell extract was centrifugated to collect the supernatant. Then, protein samples having the same concentration were loaded onto an SDS-PAGE gel and subjected to electrophoresis, and the proteins were transferred to a PVDF membrane. After blocking the membrane with 5% skim milk (or BSA), each of the antibodies against γ-H2AX (DNA damage marker), cleaved PARP (apoptosis marker), and beta-actin was treated at 4° C. for 16 hours. The Western blotting results were analyzed to evaluate the expression levels of gamma-H2AX and cleaved PARP. Beta-actin was used as a loading control to check the consistency of the protein loading.

The test system of assay [9] is U87 cells. Put plainly: Propidium iodide (PI) apoptosis assay. The following applies: flow cytometry. It is filed as cell-based. The procedure: A PI apoptosis assay was carried out to check whether AST-DT-218 induces DNA fragmentation and apoptosis as in Experimental Example 3-1. A PI detection kit was prepared, propidium iodide (PI) was added to the U87 cells that had been treated with AST-DT-218, and a reaction was allowed to proceed at room temperature in a dark room for 10 minutes. Then, PI fluorescence was measured using a flow cytometry apparatus (FIG. 4).

Assay [10] deals with U373 glioblastoma-derived brain cancer cell line. Kind of assay: Dose response curve (DRC), cell survival, U373. The assay is classed as cell-based. Particulars: Homo sapiens, U373 MG; Glioblastoma U373, 48 hours, highest concentration 10 μM; read-out: IC50 of AST-DT-218, U373. On the procedure: as §2

Turning to `CCC[C@H](C)Nc1cccc2c1C(=O)N(C1CCC(=O)NC1=O)C2=O` (stereo partly drawn) [AST-DT-135, 2-(2,6-dioxopiperidin-3-yl)-4-(((S)-pentan-2-yl)amino)isoindoline-1,3-dione], the “survival rate (Kaplan-Meier analysis) versus vehicle” value in assay [1] was “significantly increased survival rate”.

As to `Cn1nnc2c(C(N)=O)ncn2c1=O` [Temozolomide, temozolomide, reference compound], the IC50 (usually the point on the concentration scale where inhibition reaches its midpoint) is 291 µM in assay [2] and 24.6 µM in [3].

As to `COc1ccc([C@@H](C)Nc2cccc3c2C(=O)N(C2CCC(=O)NC2=O)C3=O)cc1` (stereo partly drawn) [AST-DT-218, 2-(2,6-dioxopiperidin-3-yl)-4-(((R)-1-(4-methoxyphenyl)ethyl)amino)isoindoline-1,3-dione], the IC50 in [4] was determined as 700 nM; in assay [7] (Glioblastoma U87, 48 hours, highest concentration 10 μM, read-out: IC50 of AST-DT-218, U87), 3.36 µM; in assay [2], 3.39 µM; in [3] it was 0.239 µM; in assay [10], 1240 nM. Further, the formation of colonies result in the assay with U87 cells [5] is on record as “significantly reduced the formation of colonies”. Moreover, the “survival rate (Kaplan-Meier analysis) versus vehicle” value in assay [1] was “significantly increased survival rate”. For the same compound, in the assay on U87 cells [6], the “value of the sub G1 population” value is reported as “increased”. The “cell death of brain cancer cells compared with lenalidomide and pomalidomide” value in [7] (U87 and U373, DRC) is “effective in the cell death of the brain cancer cells”. Also, the “cell death efficacy compared with temozolomide” value in [2] (brain cancer cell lines U87, U373, SK-N-SH, summary of Table 2) is “efficacy superior to temozolomide”. In addition, the “DNA fragmentation and apoptosis (expression of gamma-H2AX and cleaved PARP)” value with U87 cells [8] was “induced DNA fragmentation and apoptosis”. The “DNA fragmentation and apoptosis (PI fluorescence)” value with U87 cells [9] was “induced DNA fragmentation and apoptosis”.
